Assay results: US8211945B2, “Carba-sugar amine derivative and glycolipid metabolic disorder treating agent containing the same as active ingredient” (Seikagaku Corporation, priority 2001, dated 2012)
Substitutions are numbered along the chain they refer to.

Experiments:
Test in all cases: Mutant β-galactosidase activity in model cells, 4 days culture
Type in all cases: cell-based
[1] = molecular target: T1, human mutant β-galactosidase R482C (Homo sapiens, UniProt P16278, R482C)
T1 construct: expressed in transfected cells; host or cells: SV40-immortalized skin fibroblasts of a β-galactosidase-deficient knockout mouse
T1 sequence (P16278 29-677 R482C): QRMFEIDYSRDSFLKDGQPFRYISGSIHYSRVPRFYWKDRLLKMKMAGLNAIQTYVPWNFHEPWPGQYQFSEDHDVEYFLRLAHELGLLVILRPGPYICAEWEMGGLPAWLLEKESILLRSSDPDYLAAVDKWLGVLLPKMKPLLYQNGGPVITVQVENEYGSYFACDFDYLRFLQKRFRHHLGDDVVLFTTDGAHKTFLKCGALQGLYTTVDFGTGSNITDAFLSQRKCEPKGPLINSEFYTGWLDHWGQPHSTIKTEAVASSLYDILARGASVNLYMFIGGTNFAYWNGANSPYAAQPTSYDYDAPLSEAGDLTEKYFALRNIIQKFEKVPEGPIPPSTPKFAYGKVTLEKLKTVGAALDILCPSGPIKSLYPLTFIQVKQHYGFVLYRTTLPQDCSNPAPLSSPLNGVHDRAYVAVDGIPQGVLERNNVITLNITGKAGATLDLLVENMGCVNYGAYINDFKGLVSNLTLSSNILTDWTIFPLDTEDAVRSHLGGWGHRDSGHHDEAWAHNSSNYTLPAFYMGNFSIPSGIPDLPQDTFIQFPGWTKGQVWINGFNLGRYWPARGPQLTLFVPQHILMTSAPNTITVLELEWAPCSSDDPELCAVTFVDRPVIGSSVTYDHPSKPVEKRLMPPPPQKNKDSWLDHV

[2] = molecular target: T2, human mutant β-galactosidase I51T (Homo sapiens, UniProt P16278, I51T)
T2 construct: expressed in transfected cells; host or cells: SV40-immortalized skin fibroblasts of a β-galactosidase-deficient knockout mouse
T2 sequence (P16278 29-677 I51T): T1 sequence (P16278 29-677 R482C) with I23T, C454R

[3] = molecular target: T3, human mutant β-galactosidase Y316C (Homo sapiens, UniProt P16278, Y316C)
T3 construct: expressed in transfected cells; host or cells: SV40-immortalized skin fibroblasts of a β-galactosidase-deficient knockout mouse
T3 sequence (P16278 29-677 Y316C): T1 sequence (P16278 29-677 R482C) with Y288C, C454R

Row | Compound | enzyme activity, Control ([1]; transferred gene R482C, control substance 0.5 mM NB-DGJ) | enzyme activity, Control ([2]; transferred gene I51T, control substance 0.5 mM NB-DGJ) | enzyme activity, Control ([3]; transferred gene Y316C, control substance 0.5 mM NB-DGJ) | Relative ratio (×100%) ([1]; R482C, substance 18 vs control) | enzyme activity ([1]; transferred gene R482C, 0.2 μM, 4 days) | Relative ratio (×100%) ([2]; I51T, substance 18 vs control) | enzyme activity ([2]; transferred gene I51T, 0.2 μM, 4 days) | Relative ratio (×100%) ([3]; Y316C, substance 18 vs control) | enzyme activity ([3]; transferred gene Y316C, 0.2 μM, 4 days)
1 | CCCCN1C[C@H](O)[C@@H](O)[C@@H](O)[C@H]1CO [Control, N-(n-butyl)-deoxygalactonojirimycin, reference compound] | 0.14 | 1.42 | 0.23 | – | – | – | – | – | –
2 | CCCCCCCCN[C@@H]1C=C(CO)[C@H](O)C(O)[C@@H]1O (stereo partly drawn) [Substance 18, N-octyl-5a-carba-α-L-arabino-hexo-5(5a)-enopyranosylamine] | – | – | – | 4.25 ×100% | 0.62 | 3.08 ×100% | 4.37 | 3.44 ×100% | 0.80
